Reference: patent publication US20070053955A1, “Compositions and methods for improving cellular survival and reducing apoptosis after ischemic episode in the brain” (NESTEC S.A., priority 2005, published 2007)

Assays:
Type in all cases: in vivo
[1] = tested on: growth factors and anti-inflammatory proteins; test: Expression of growth factors and anti-inflammatory proteins in dogs given supplemental arginine; conditions: dietary supplementation
[2] = tested on: transient cerebral ischemia in an ovariectomized rat model; test: Transient middle cerebral artery (tMCA) occlusion, ischemic lesion (infarct) volume by TTC staining; conditions: all rats, vs control diet, 60 min tMCA occlusion, 24 h reperfusion (FIG. 1)
Procedure: Animals. Female Charles Rivers Sprague-Dawley rats (250 g, Wilmington, Mass.) were acclimatized to animal facilities three days prior to surgery with a 12 hour light-dark cycle. Bilateral ovariectomy was performed 2 weeks before diet feeding began. Four weeks after the start of diet feeding, transient middle cerebral artery (tMCA) occlusion under anesthesia was performed following intraperitoneal (i.p.) injection of ketamine (60 mg/kg) and xylazine (10 mg/kg).
Diet and Hormone Administration. Fourteen to 15 rats per group were randomly assigned to one of five treatment groups. These groups were as follows: […]
All diets were fed ad libitum to the rats for four weeks. […] Also once per week, body weights and food intake were determined. […]
Middle cerebral artery occlusion and samples preparation. […] Rectal temperature was monitored and maintained between 36.5 and 37° C. with a heating pad throughout the procedure. […]
Some animals were eliminated from the study during the protocol. The number of animals quantified for lesion volume ranged from 12 to 15 per group.
Statistical methods. Results were analyzed with one-way analysis of variance (ANOVA) using Prism software(Graphpad Inc; San Diego, Calif.). The significance of differences among groups was determined by one-way ANOVA followed by Tukey's multiple comparison tests. All values were expressed as mean±SEM.

[3] = tested on: transient cerebral ischemia in an ovariectomized rat model; test: Cerebral ischemia-induced apoptosis, DNA fragmentation by TUNEL staining after tMCA occlusion; conditions: mean of three brain regions, normalized to DAPI cell count, vs control diet (FIG. 3)

| Compound | expression of growth factors and anti-inflammatory proteins [1] | effect on infarct size / mean infarct volume [2] | reduction of infarct volume ([2]; diets fed 4 weeks, E2 implant 1 week) [%] | TUNEL staining / TUNEL-positive cell counts [3] |
| --- | --- | --- | --- | --- |
| N=C(N)NCCC[C@H](N)C(=O)O [arginine, L-arginine] | increased expression of multiple growth factors and anti-inflammatory proteins in a dose-dependent manner |  |  |  |
| C[C@]12CC[C@@H]3c4ccc(O)cc4CC[C@H]3[C@@H]1CC[C@@H]2O [Estradiol, 17β-estradiol] |  | reduced infarct size | 68 | substantial reduction in TUNEL staining |
